The source made the active and inactive calls. No cut-off for these calls is given here.

Common to all, as to type: functional, organism-based
Experiment [1] has as its system SARS-CoV-2. In words: Antiviral activity against luciferase-expressing pseudovirus encoding SARS-CoV-2 Omicron expressing S protein L303A/E309A/R765A/K964A mutant infected in human 293T/ACE2 cells assessed as reduction of viral growth at 1.25 to 10 uM measured after 48 hrs by luciferase assay. The note with it: Severe acute respiratory syndrome coronavirus 2, dose 1.25-10 µM.

Experiment [2] deals with SARS-CoV-2. The experiment can be described thus: Antiviral activity against luciferase-expressing pseudovirus encoding SARS-CoV-2 Omicron expressing S protein L303A/E309A mutant infected in human 293T/ACE2 cells assessed as reduction of viral growth measured after 48 hrs by luciferase assay. The note with it: Severe acute respiratory syndrome coronavirus 2.
The test system of experiment [3] is SARS-CoV-2. In words: Antiviral activity against luciferase-expressing pseudovirus encoding SARS-CoV-2 Omicron expressing S protein R765A/K964A mutant infected in human 293T/ACE2 cells assessed as reduction of viral growth measured after 48 hrs by luciferase assay. Particulars: Severe acute respiratory syndrome coronavirus 2.

For `C=C(C)[C@@H]1CC[C@]2(C(=O)Nc3ccc4ccccc4c3)CC[C@]3(C)[C@H](CC[C@@H]4[C@@]5(C)CC[C@H](O[C@@H]6O[C@H](CO)[C@@H](O[C@@H]7O[C@@H](C)[C@H](O)[C@@H](O)[C@H]7O)[C@H](O)[C@H]6O[C@@H]6O[C@@H](C)[C@H](O)[C@@H](O)[C@H]6O)C(C)(C)[C@@H]5CC[C@]43C)[C@@H]12`, the result in the experiment on SARS-CoV-2 [1] was inactive. The result with SARS-CoV-2 [2] and with SARS-CoV-2 [3] was Active.

The values above are taken from ChEMBL document CHEMBL5370556, “Optimization, and biological evaluation of 3-O-β-chacotriosyl betulinic acid amide derivatives as novel small-molecule Omicron” (Eur J Med Chem, 2023).
